Laboratory results reported in the supplement of paper PMC10307832.

What was measured:
Experiment in all cases: relative viability (nuclei count vs DMSO), 5 days (fraction); higher = more cells survive
Bosutinib + Trametinib = compound: COc1cc(Nc2c(C#N)cnc3cc(OCCCN4CCN(C)CC4)c(OC)cc23)c(Cl)cc1Cl [Bosutinib] + CC(=O)Nc1cccc(-n2c(=O)n(C3CC3)c(=O)c3c(Nc4ccc(I)cc4F)n(C)c(=O)c(C)c32)c1 [Trametinib] (partner 0.02 µM)
Method in brief: (§1)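 Lung cancer cell lines were seeded in 1536-well plates and dosed by pin tool the next day, with either a single drug or a fixed anchor-drug dose combined with five library-drug doses (not always all listed) spaced in √10 steps. Five days later, one step fixed the cells and stained their nuclei (final 0.05% Triton X-100, 1% formaldehyde, 1 ug/ml Hoechst), and nuclei were counted on 4× images. Relative viability is the nuclei count in treated wells divided by the count in vehicle wells, and each value is the median of duplicate plates.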

Bosutinib + Crizotinib = compound: COc1cc(Nc2c(C#N)cnc3cc(OCCCN4CCN(C)CC4)c(OC)cc23)c(Cl)cc1Cl [Bosutinib] + C[C@@H](Oc1cc(-c2cnn(C3CCNCC3)c2)cnc1N)c1c(Cl)ccc(F)c1Cl [Crizotinib] (partner 1 µM)
Method in brief: as §1

Bosutinib + Linsitinib = compound: COc1cc(Nc2c(C#N)cnc3cc(OCCCN4CCN(C)CC4)c(OC)cc23)c(Cl)cc1Cl [Bosutinib] + C[C@]1(O)C[C@@H](c2nc(-c3ccc4ccc(-c5ccccc5)nc4c3)c3c(N)nccn32)C1 [Linsitinib] (partner 1 µM)
Method in brief: as §1

Bosutinib + Pemetrexed = compound: COc1cc(Nc2c(C#N)cnc3cc(OCCCN4CCN(C)CC4)c(OC)cc23)c(Cl)cc1Cl [Bosutinib] + Nc1nc2[nH]cc(CCc3ccc(C(=O)N[C@@H](CCC(=O)O)C(=O)O)cc3)c2c(=O)[nH]1 [Pemetrexed] (partner 0.2 µM)
Method in brief: as §1

Bosutinib + Olaparib = compound: COc1cc(Nc2c(C#N)cnc3cc(OCCCN4CCN(C)CC4)c(OC)cc23)c(Cl)cc1Cl [Bosutinib] + O=C(c1cc(Cc2n[nH]c(=O)c3ccccc23)ccc1F)N1CCN(C(=O)C2CC2)CC1 [Olaparib] (partner 8 µM)
Method in brief: as §1

| Cell Line | relative viability (Bosutinib + Trametinib; first compound 0.01 µM) | relative viability (Bosutinib + Trametinib; first compound 0.03162 µM) | relative viability (Bosutinib + Trametinib; first compound 0.1 µM) | relative viability (Bosutinib + Trametinib; first compound 1 µM) | relative viability (Bosutinib + Crizotinib; first compound 0.01 µM) | relative viability (Bosutinib + Crizotinib; first compound 0.03162 µM) | relative viability (Bosutinib + Crizotinib; first compound 0.1 µM) | relative viability (Bosutinib + Crizotinib; first compound 1 µM) | relative viability (Bosutinib + Linsitinib; first compound 0.01 µM) | relative viability (Bosutinib + Linsitinib; first compound 0.03162 µM) | relative viability (Bosutinib + Linsitinib; first compound 0.1 µM) | relative viability (Bosutinib + Linsitinib; first compound 1 µM) | relative viability (Bosutinib + Pemetrexed; first compound 0.01 µM) | relative viability (Bosutinib + Pemetrexed; first compound 0.03162 µM) | relative viability (Bosutinib + Pemetrexed; first compound 0.1 µM) | relative viability (Bosutinib + Pemetrexed; first compound 1 µM) | relative viability (Bosutinib + Olaparib; first compound 0.01 µM) | relative viability (Bosutinib + Olaparib; first compound 0.03162 µM) | relative viability (Bosutinib + Olaparib; first compound 0.1 µM) | relative viability (Bosutinib + Olaparib; first compound 1 µM) |
| --- | --- | --- | --- | --- | --- | --- | --- | --- | --- | --- | --- | --- | --- | --- | --- | --- | --- | --- | --- | --- |
| LXF-289 | 0.654 | 0.721 | 0.679 | 0.751 | 0.829 | 0.823 | 0.79 | 0.898 | 0.948 | 0.971 | 0.946 | 1.01 | 0.908 | 1.04 | 0.985 | 0.88 | 1.05 | 1.12 | 0.972 | 1.24 |
| NCI-H23 | 0.343 | 0.344 | 0.36 | 0.277 | 0.636 | 0.464 | 0.512 | 0.458 | 0.442 | 0.556 | 0.647 | 0.46 | 0.673 | 0.644 | 0.732 | 0.609 | 0.326 | 0.328 | 0.348 | 0.278 |
| NCI-H322M | 0.486 | 0.481 | 0.492 | 0.361 | 1.08 | 0.949 | 0.968 | 1 | 0.964 | 0.954 | 1.03 | 0.789 | 0.579 | 0.594 | 0.6 | 0.521 | 0.762 | 0.758 | 0.741 | 0.492 |
| NCI-H358 | 0.132 | 0.128 | 0.121 | 0.109 | 0.516 | 0.512 | 0.505 | 0.647 | 0.787 | 0.753 | 0.602 | 0.594 | 0.152 | 0.163 | 0.18 | 0.163 | 0.566 | 0.579 | 0.572 | 0.366 |
| NCI-H441 | 0.509 | 0.476 | 0.436 | 0.379 | 0.909 | 0.705 | 0.808 | 1.3 | 0.583 | 0.504 | 0.58 | 0.543 | 0.242 | 0.272 | 0.264 | 0.251 | 0.431 | 0.562 | 0.755 | 0.678 |
| NCI-H460 | 0.17 | 0.135 | 0.157 | 0.0941 | 0.85 | 0.884 | 0.859 | 0.639 | 0.753 | 0.835 | 0.668 | 0.338 | 0.0612 | 0.0671 | 0.0657 | 0.073 | 0.388 | 0.407 | 0.392 | 0.414 |
| NCI-H520 | 0.703 | 0.633 | 0.6 | 0.417 | 0.806 | 0.74 | 0.635 | 0.676 | 1.05 | 1.05 | 1.03 | 0.767 | 0.661 | 0.666 | 0.627 | 0.605 | 0.358 | 0.379 | 0.352 | 0.298 |
